Reference: ChEMBL document CHEMBL1129440, “The use of topographical constraints in receptor mapping: investigation of the topographical requirements of the tryptophan 30 residue for receptor binding of Asp-Tyr-D-Phe-Gly-Trp-(N-Me)Nle-Asp-Phe-NH2 (SNF 9007), a cholecystokinin (26-33) analogue that binds to both CCK-B and delta-opioid …” (J Med Chem, 1996)

Columns and labels:
[1] = target: T1, Cholecystokinin receptor type A (Cavia porcellus, UniProt Q63931); test: Binding affinity towards Cholecystokinin type A receptor was determined in guinea pig pancreatic membranes using [125I]-BH-CCK-8 as radioligand; format: cell membranes
T1 sequence (Q63931 whole entry): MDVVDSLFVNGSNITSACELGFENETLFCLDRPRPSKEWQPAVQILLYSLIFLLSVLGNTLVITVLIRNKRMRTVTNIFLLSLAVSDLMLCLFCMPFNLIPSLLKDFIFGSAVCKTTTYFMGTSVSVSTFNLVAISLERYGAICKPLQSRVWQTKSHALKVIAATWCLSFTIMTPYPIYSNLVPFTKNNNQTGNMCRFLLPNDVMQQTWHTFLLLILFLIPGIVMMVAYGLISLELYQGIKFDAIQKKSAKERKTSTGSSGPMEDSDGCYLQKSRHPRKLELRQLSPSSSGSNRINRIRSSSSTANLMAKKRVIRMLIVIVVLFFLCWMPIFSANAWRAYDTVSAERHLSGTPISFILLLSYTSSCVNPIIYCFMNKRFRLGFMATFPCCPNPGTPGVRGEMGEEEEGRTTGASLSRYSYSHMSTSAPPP

Mu-type opioid receptor = Mu-type opioid receptor (Cavia porcellus, UniProt P97266); test: Binding affinity towards Opioid receptor mu 1 was determined in guinea pig whole brain using [3H]CTOP radioligand
Mu-type opioid receptor, sequence (P97266 whole entry): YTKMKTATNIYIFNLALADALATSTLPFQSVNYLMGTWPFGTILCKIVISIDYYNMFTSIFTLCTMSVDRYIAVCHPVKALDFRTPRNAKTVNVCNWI

Compound	IC50 ([1]; read-out: IC50) [µM]	IC50 (Mu-type opioid receptor) [µM]	IC50 [1]
CCCC[C@@H](C(=O)N[C@@H](CC(=O)O)C(=O)N[C@@H](Cc1ccccc1)C(N)=O)N(C)C(=O)[C@H](NC(=O)CNC(=O)[C@@H](Cc1ccccc1)NC(=O)[C@H](Cc1ccc(O)cc1)NC(=O)[C@@H](N)CC(=O)O)[C@H](C)c1c[nH]c2ccccc12	8.6	> 30	–
CCCC[C@@H](C(=O)N[C@@H](CC(=O)O)C(=O)N[C@@H](Cc1ccccc1)C(N)=O)N(C)C(=O)[C@H](NC(=O)CNC(=O)[C@@H](Cc1ccccc1)NC(=O)[C@H](Cc1ccc(O)cc1)NC(=O)[C@@H](N)CC(=O)O)[C@@H](C)c1c[nH]c2ccccc12	8.6	> 30	–
CCCC[C@@H](C(=O)N[C@@H](CC(=O)O)C(=O)N[C@@H](Cc1ccccc1)C(N)=O)N(C)C(=O)[C@@H](NC(=O)CNC(=O)[C@@H](Cc1ccccc1)NC(=O)[C@H](Cc1ccc(O)cc1)NC(=O)[C@@H](N)CC(=O)O)[C@H](C)c1c[nH]c2ccccc12	1	3.05	–
CCCC[C@@H](C(=O)N[C@@H](CC(=O)O)C(=O)N[C@@H](Cc1ccccc1)C(N)=O)N(C)C(=O)[C@@H](NC(=O)CNC(=O)[C@@H](Cc1ccccc1)NC(=O)[C@H](Cc1ccc(O)cc1)NC(=O)[C@@H](N)CC(=O)O)[C@@H](C)c1c[nH]c2ccccc12	> 1.2	6.8	–
CCCC[C@@H](C(=O)N[C@@H](CC(=O)O)C(=O)N[C@@H](Cc1ccccc1)C(N)=O)N(C)C(=O)[C@H](Cc1c[nH]c2ccccc12)NC(=O)CNC(=O)[C@@H](Cc1ccccc1)NC(=O)[C@H](Cc1ccc(O)cc1)NC(=O)[C@@H](N)CC(=O)O	> 12	0.7	–
CC1(C)SSC(C)(C)[C@H](C(=O)O)NC(=O)C(Cc2ccccc2)NC(=O)CNC(=O)C1NC(=O)[C@@H](N)Cc1ccc(O)cc1 (single isomer, unassigned)	–	–	Not Active
